Source: ChEMBL document CHEMBL1159030, “Plant anticancer agents, L. cytotoxic triterpenes from Sandoricum koetjape stems” (1992)
Converted amounts (≈) assume the structure as drawn. The source made the active and inactive calls. No cut-off for these calls is given here.

Experiments:
[1] = tested on: A-431; assay: Cytotoxicity against human A431 cells; type: functional; details: read-out: ED50 (the source's name)
[2] = Cytotoxicity against human BC1 cells; type: functional; details: read-out: ED50 (the source's name)
[3] = tested on: Col2; assay: Cytotoxicity against human Col2 cells; type: functional; details: read-out: ED50 (the source's name)
[4] = tested on: HT-1080; assay: Cytotoxicity against human HT1080 cells; type: functional; details: read-out: ED50 (the source's name)
[5] = tested on: KB; assay: Cytotoxicity against human KB cells; type: functional; details: read-out: ED50 (the source's name)
[6] = Cytotoxicity against human vinblastine-resistant KBV1 cells; type: functional; details: KB-V1, read-out: ED50 (the source's name)
[7] = tested on: LNCaP; assay: Cytotoxicity against human LNCAP cells; type: functional; details: read-out: ED50 (the source's name)
[8] = tested on: Lu1; assay: Cytotoxicity against human Lu1 cells; type: functional; details: read-out: ED50 (the source's name)
[9] = tested on: SK-MEL-2; assay: Cytotoxicity against human SK-MEL-2 cells; type: functional; details: read-out: ED50 (the source's name)
[10] = tested on: ZR-75-1; assay: Cytotoxicity against human ZR-75-1 cells; type: functional; details: read-out: ED50 (the source's name)
[11] = tested on: P388; assay: Cytotoxicity against mouse P388 cells; type: functional; details: read-out: ED50 (the source's name)
[12] = tested on: ASK; assay: Antimitotic activity in rat ASK cells at 0.32 to 20 ug/mL; type: functional, cell-based

Structure (SMILES)	EC50 [1]	EC50 [2]	EC50 [3]	EC50 [4]	EC50 [5]	EC50 [6]	EC50 [7]	EC50 [8]	EC50 [9]	EC50 [10]	EC50 [11]	Activity [12]
CC1(C)C(=O)CC[C@]2(C)[C@H]3CC=C4[C@@H]5C[C@](C)(C(=O)O)CC[C@]5(C)CC[C@@]4(C)[C@]3(C)CC[C@@H]12	> 20 µg/mL	> 20 µg/mL	> 20 µg/mL	> 20 µg/mL	4.9 µg/mL (≈ 10.8 µM)	8.5 µg/mL (≈ 18.7 µM)	10 µg/mL (≈ 22 µM)	10 µg/mL (≈ 22 µM)	12 µg/mL (≈ 26.4 µM)	5.2 µg/mL (≈ 11.4 µM)	0.61 µg/mL (≈ 1.34 µM)	–
CC1(C)[C@H](O)CC[C@]2(C)[C@H]3CC=C4[C@@H]5C[C@](C)(C(=O)O)CC[C@]5(C)CC[C@@]4(C)[C@]3(C)CC[C@@H]12 [KATONIC ACID]	12 µg/mL (≈ 26.3 µM)	7.8 µg/mL (≈ 17.1 µM)	> 20 µg/mL	19 µg/mL (≈ 41.6 µM)	8.3 µg/mL (≈ 18.2 µM)	15 µg/mL (≈ 32.8 µM)	10 µg/mL (≈ 21.9 µM)	11 µg/mL (≈ 24.1 µM)	12 µg/mL (≈ 26.3 µM)	2.2 µg/mL (≈ 4.82 µM)	0.11 µg/mL (≈ 0.241 µM)	–
C=C(C)[C@@H]1CC[C@]2(C)[C@H](CC=C3[C@@H]4C[C@@](C)(C(=O)O)CC[C@]4(C)CC[C@]32C)[C@@]1(C)CCC(=O)O [KOETJAPIC ACID]	> 20 µg/mL	> 20 µg/mL	> 20 µg/mL	> 20 µg/mL	> 20 µg/mL	> 20 µg/mL	> 20 µg/mL	> 20 µg/mL	> 20 µg/mL	> 20 µg/mL	> 20 µg/mL	inactive
C=C1CC[C@@H]2[C@H]([C@H]3[C@H]1CC[C@]3(C)O)C2(C)C [SPATHULENOL]	> 20 µg/mL	> 20 µg/mL	> 20 µg/mL	> 20 µg/mL	> 20 µg/mL	> 20 µg/mL	> 20 µg/mL	> 20 µg/mL	> 20 µg/mL	> 20 µg/mL	> 20 µg/mL	inactive
C=C1CC[C@@H]2[C@H]([C@H]3[C@@H](C)CC[C@@H]13)C2(C)C	> 20 µg/mL	> 20 µg/mL	> 20 µg/mL	> 20 µg/mL	> 20 µg/mL	> 20 µg/mL	> 20 µg/mL	> 20 µg/mL	> 20 µg/mL	> 20 µg/mL	> 20 µg/mL	inactive
C=C1CC[C@@H]2O[C@]2(C)CC[C@@H]2[C@@H]1CC2(C)C	> 20 µg/mL	> 20 µg/mL	> 20 µg/mL	> 20 µg/mL	> 20 µg/mL	> 20 µg/mL	> 20 µg/mL	> 20 µg/mL	> 20 µg/mL	> 20 µg/mL	> 20 µg/mL	inactive
